Data set [1] relates to Staphylococcus epidermidis. The data set is described as follows: Antibacterial activity against Staphylococcus epidermidis ATCC 49134 after 18 hrs by microdilution method. It is filed as functional. The following applies: ATCC 49134, 18 h.
Data set [2] can be described thus: Solubility in water at pH 7 by UV-vis spectrophotometric analysis. It is filed as physicochemical.
Data set [3] has as its system Staphylococcus aureus. The data set is described as follows: Antibacterial activity against methicillin resistant Staphylococcus aureus isolate 1 after 18 hrs by microdilution method. The data set is classed as functional. The following applies: isolate 1, 18 h.
In data set [4] the test system is Staphylococcus aureus. Briefly: Antibacterial activity against Staphylococcus aureus ATCC 6538 after 18 hrs by microdilution method. The data set is classed as functional. The settings on record: ATCC 6538, 18 h.
Data set [5] concerns Staphylococcus aureus. Briefly: Antibacterial activity against methicillin resistant Staphylococcus aureus isolate 5 after 18 hrs by microdilution method. The following applies: isolate 5, 18 h. It is filed as functional.
Data set [6] has as its system Staphylococcus aureus. Briefly: Antibacterial activity against Staphylococcus aureus ATCC 4163 after 18 hrs by microdilution method. It is filed as functional. The following applies: ATCC 4163, 18 h. In general terms: In broth dilution the organism is exposed to a series of concentrations in liquid medium.
Data set [7] deals with Pseudomonas aeruginosa. Briefly: Antibacterial activity against Pseudomonas aeruginosa NCTC 6749 after 18 hrs by microdilution method. The following applies: NCTC 6749, 18 h. The data set is classed as functional.
For data set [8], the system named is Staphylococcus aureus. Briefly: Antibacterial activity against methicillin resistant Staphylococcus aureus isolate 2 after 18 hrs by microdilution method. It is filed as functional. The settings on record: isolate 2, 18 h.
The test system of data set [9] is Staphylococcus aureus. The data set is described as follows: Antibacterial activity against methicillin resistant Staphylococcus aureus isolate 4 after 18 hrs by microdilution method. The data set is classed as functional. The settings on record: isolate 4, 18 h.
Data set [10] relates to Staphylococcus epidermidis. Briefly: Antibacterial activity against Staphylococcus epidermidis ATCC 12228 after 18 hrs by microdilution method. The data set is classed as functional. The settings on record: ATCC 12228, 18 h.
The test system of data set [11] is Staphylococcus aureus. The data set is described as follows: Antibacterial activity against methicillin resistant Staphylococcus aureus isolate 3 after 18 hrs by microdilution method. It is filed as functional. The following applies: isolate 3, 18 h.
The subject of data set [12] is Escherichia coli. Briefly: Antibacterial activity against Escherichia coli ATCC 25922 after 18 hrs by microdilution method. The following applies: ATCC 25922, 18 h. The data set is classed as functional.
For data set [13], the system named is Staphylococcus aureus. Briefly: Antibacterial activity against Staphylococcus aureus ATCC 25923 after 18 hrs by microdilution method. The settings on record: ATCC 25923, 18 h. The data set is classed as functional.
Data set [14] is described as follows: Octanol-water partition coefficient, logP of the compound after 1 hr by UV-vis spectrophotometric analysis. The data set is classed as physicochemical.

SMILES strings stand for the structures. In brackets after ≈: the same amount, converted by molar mass.

As usually defined, the MIC is the smallest concentration in the dilution series that meets the test's criterion for growth inhibition. The low end stands for greater potency, the high end for weaker potency. By solubility is commonly meant the dissolved amount per volume that the medium holds. One may read the logP as a log measure of how a compound divides between an organic and an aqueous phase. Read a high logP as a more lipophilic compound. With `COC(=O)[C@H](Cc1ccc(O)cc1)NCc1c2c(O)c3c(O)c(C)c4c(c3c1O)C(=O)[C@@](C)(O/C=C/[C@H](OC)[C@@H](C)[C@@H](OC(C)=O)[C@H](C)[C@H](O)[C@H](C)[C@@H](O)[C@@H](C)/C=C/C=C(/C)C(=O)N2)O4`, the minimal inhibitory concentration (MIC) is 0.125 µg/mL (≈ 0.138 µM) in [1]; 0.5 µg/mL (≈ 0.552 µM) in [3]; 0.5 µg/mL (≈ 0.552 µM) in data set [4]; 0.5 µg/mL (≈ 0.552 µM) in [5]; 0.5 µg/mL (≈ 0.552 µM) in [6]; more than 2 µg/mL in data set [7]. In addition, the minimum inhibitory concentration (MIC) in data set [8] was 1 µg/mL (≈ 1.1 µM); in data set [9], 0.5 µg/mL (≈ 0.552 µM); in data set [10] it was 0.063 µg/mL (≈ 0.0696 µM); in data set [11] it was 1 µg/mL (≈ 1.1 µM); in data set [12] it was more than 2 µg/mL; in [13] it was 1 µg/mL (≈ 1.1 µM). This compound also returned a solubility in data set [2] of 60 µg/mL (≈ 66.3 µM). In addition, the log partition coefficient (logP) at 1 h in data set [14] worked out at 1.88.

These data come from ChEMBL document CHEMBL3797048, “Structure-activity relationship studies of new rifamycins containing l-amino acid esters as inhibitors of bacterial RNA polymerases” (Eur J Med Chem, 2016).
